Reference: patent US7241763B2, “3-furanyl analogs of toxoflavine as kinase inhibitors” (priority 2002, dated 2007)
Like-named read-outs stand apart in the source and are kept apart here.

What was measured:
[1] = target: cdk4 (Homo sapiens, UniProt P11802); assay: In vitro inhibition of cdk4 using a scintillant proximity assay (CDK4 SPA, Ex. C1); format: biochemical
Method: In Vitro Inhibition of cdk4 using a Scintillant Proximity Assay
The scintillant proximity assay (SPA) is in general described in U.S. Pat. No. 4,568,649 (Amersham Pharmacia Biotech). In the present cdk4 SPA kinase reaction assay, a kinase substrate consisting of a fragment of the restinoblastoma protein (pRb) tagged with […] (GST), is incubated with the aforementioned protein in the presence of (^33P) radiolabeled ATP. (^33P) phosporylation of the substrate is subsequently measured as light energy emitted using glutathione-coated SPA beads (Amersham Pharmacia Biotech) by trapping and quantifying the binding of the GST tagged and radiolabeled restinoblastoma protein.
The CDK4 SPA kinase reaction is performed at room temperature for 30 minutes in a 96-well microtiter plate. For each of the tested compounds a full dose response —10^−5M to 3.10^−9M—has been performed. Flavopiridol was used as reference compound. The 100 μl reaction volume contains 50 mM Hepes, 10 mM NaF, 10 mM MgCl2, 1 mM Na3VO4 pH 7.5, 1.5 μg CDK4-cell lysate/well, 0.2 μM unlabeled ATP, 1.7 μg/well GST-pRb, 1.7 nM AT^33P and 1 μl of a DMSO solution. The reaction is stopped by diluting the reaction mixture ½ with 0.1 mM Na2EDTA, 0.1 mM non-labeled ATP, 0.05% Triton-X-100 and 10 mg/ml glutathion coated beads in PBS. The microtiterplates are centrifuges at 900 rpm for 10 minutes and the amount of phosphorylated (^33P) pRb is determined by counting (1 min/well) in a microtiterplate scintillation counter.

[2] = target: T1, AKT3 (Homo sapiens, UniProt Q9Y243); assay: In vitro inhibition of AKT3 using a filter assay (AKT3 pep., Ex. C3); format: biochemical
T1 sequence (Q9Y243 whole entry): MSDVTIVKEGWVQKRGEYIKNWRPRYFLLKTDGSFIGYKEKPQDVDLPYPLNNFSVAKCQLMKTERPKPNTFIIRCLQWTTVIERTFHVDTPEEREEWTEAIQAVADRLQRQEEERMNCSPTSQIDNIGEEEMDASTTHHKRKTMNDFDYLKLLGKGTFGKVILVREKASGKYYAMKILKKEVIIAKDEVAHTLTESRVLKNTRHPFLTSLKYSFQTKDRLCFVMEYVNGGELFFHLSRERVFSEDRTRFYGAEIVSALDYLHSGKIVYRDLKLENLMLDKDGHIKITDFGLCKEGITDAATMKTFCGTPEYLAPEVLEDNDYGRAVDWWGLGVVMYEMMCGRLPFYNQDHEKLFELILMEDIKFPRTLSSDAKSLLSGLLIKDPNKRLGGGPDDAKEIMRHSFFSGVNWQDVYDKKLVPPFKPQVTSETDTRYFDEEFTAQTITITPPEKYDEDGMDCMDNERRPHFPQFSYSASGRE
Method: In Vitro Inhibition of AKT3 using a Filter Assay
In the present AKT3 filter assay, a kinase substrate consisting of a fragment of histone H2B, is incubated with the aforementioned protein in the presence of (^33P) radiolabeled ATP. The (^33P)phosporylated substrate binds to a phosphocellulose cation exchange filter, that can easily be removed from the incubation mixture and counted using a microplate scintillation counter.
AKT3 filter assays were performed at 25° C. for 3 hrs in the presence of 25 mM Hepes, pH 7.0, containing 15 mM MgCl2, 1 mM DTT Each assay was performed in a 100 μl reaction volume containing 111 nM AKT3 (diluted in 25 mM Hepes, pH 7.0, containing 15 mM MgCl2, 1 mM DTT) and the 2.5 μM Histone H2B and 2 nM ATP-P^32. The reaction was terminated by addition of 100 μl 75 mM H3PO4, 90 μl of the assay mixture was filtered through Phosphocellulose cation exchange paper. After five times washing with […] H3PO4, the filterpaper was counting in a microtiterplate scintillation counter.

[3] = tested on: A2780 cell; assay: Cytotox/survival of A2780 cell after 3 days; format: cell-based; conditions: Homo sapiens, read-out: Cytotox/survival of A2780 cell after 3 days - pIC50 values (converted)
Method: In an alternative assay, the growth inhibitory effect of the compounds was tested on the ovarian carcinoma cell line A2780 using art known cytotoxicity assays such as LIVE/DEAD (Molecular Probes) or MTT.

[4] = target: T2, CDC25B (Homo sapiens, UniProt P30305); assay: In vitro inhibition of CDC25B using the fluorogenic substrate 3-OMFP (CDC25B WT, Ex. C5); format: biochemical
T2 sequence (P30305 1-580): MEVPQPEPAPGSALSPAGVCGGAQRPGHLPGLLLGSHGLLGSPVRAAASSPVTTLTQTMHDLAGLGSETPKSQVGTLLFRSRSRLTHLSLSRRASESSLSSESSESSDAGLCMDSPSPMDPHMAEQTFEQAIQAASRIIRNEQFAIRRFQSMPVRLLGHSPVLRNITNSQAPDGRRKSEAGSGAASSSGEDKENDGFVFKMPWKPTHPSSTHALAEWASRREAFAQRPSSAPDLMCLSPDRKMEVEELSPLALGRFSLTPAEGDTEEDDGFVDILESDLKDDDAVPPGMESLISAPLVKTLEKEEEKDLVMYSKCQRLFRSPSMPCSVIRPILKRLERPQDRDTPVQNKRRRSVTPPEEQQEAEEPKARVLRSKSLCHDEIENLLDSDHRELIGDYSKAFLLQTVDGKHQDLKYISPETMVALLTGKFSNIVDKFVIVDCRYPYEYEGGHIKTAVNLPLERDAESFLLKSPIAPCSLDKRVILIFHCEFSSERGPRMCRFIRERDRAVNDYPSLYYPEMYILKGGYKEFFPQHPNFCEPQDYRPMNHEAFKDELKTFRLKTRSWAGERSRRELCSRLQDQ
Method: In Vitro Inhibition of CDC25B using the Fluorogenic Substrate 3-OMFP
CDC25B phosphatase activity is assessed using the fluorogenic substrate 3-O-methyl-flurorescein-phosphate (3-OMFP). The phosphatase-reaction is performed for 1 hour at room temperature in a black microtiter plate in a volume of 50 μl. The reaction mixture contains 4 μg/mlCDC25B, 15 μM (3-OMFP), 15 mM Tris, 50 mM NaCl, 1 mM DTT, 1 mM Na2EDTA at pH 8.0 and 0.1% DMSO solution at 10^−5 M and the hits are tested in the same conditions in a full dose/response from 10^−5, 3.10^−6, 10^−6 and 3.10^−7 M. The enzymatic activity is determined by measuring the fluorescent signal at 485 nm (ex.) and 538 (em.).

[5] = target: T1, AKT3; assay: Cellular inhibition of AKT3 using an ELISA (AKT cel, Ex. C6); format: cell-based; design: endogenous in cells; host or cells: MDA-MB 231
Method: Cellular Inhibition of AKT3 using an ELISA
The human breast adenocarcinoma cell line (MDA-MB 231) was used in an phosphospecific antibody cell ELISA (PACE) to assess the inhibitory effect of the compounds on AKT3 mediated phosphorylation of mitogen-activated protein kinase (MAPK). In the experiments the MDA-MB 231 cells were serum starved for 24 hours (5% CO2; 37° C.). Subsequently, the cells are incubated at room temperature for 2 hours with 20 μM (in serum free medium) of the phosphatidylinositol 3-kinase inhibitor Ly294002 (Alexis, San Diego, Calif.) prior to the incubation for 30 minutes with the compounds at a final concentration ranging from 1 nM to 3 μM. After fixation (with 4.5% formaldehyde) for 20 minutes and washing with PBS (0.1M) the cells were successively incubated with for 5 minutes with 0.1% Triton X-100 in PBS, for 20 minutes with 0.6% H2O2 and 1 hour with a 2% BSA solution as blocking buffer. […] The OD (490–655 nm) reflected the amount of phosphorylated MAPK and the pIC50 of the compounds was based on their effect with respect to blanco (0.1% DMSO) or an internal reference compound treatment.

[6] = GST-pRb substrate, 33P-ATP, room temperature 30 minutes, read-out: CDK4 SPA (Ex. C1): pIC50 values (converted)
[7] = histone H2B substrate, filter assay, 25° C. 3 hrs, read-out: AKT3 pep. (Ex. C3): pIC50 values (converted)
[8] = 72 h, A2780 ovarian carcinoma cell line, 3 days
[9] = 3-OMFP substrate, 1 hour room temperature, read-out: CDC25B WT (Ex. C5): pIC50 values (converted)
[10] = MDA-MB 231 cells, phosphorylated MAPK ELISA, 30 minutes with compound, read-out: AKT cel (Ex. C6): pIC50 values (converted)

cdk4, sequence (P11802 whole entry): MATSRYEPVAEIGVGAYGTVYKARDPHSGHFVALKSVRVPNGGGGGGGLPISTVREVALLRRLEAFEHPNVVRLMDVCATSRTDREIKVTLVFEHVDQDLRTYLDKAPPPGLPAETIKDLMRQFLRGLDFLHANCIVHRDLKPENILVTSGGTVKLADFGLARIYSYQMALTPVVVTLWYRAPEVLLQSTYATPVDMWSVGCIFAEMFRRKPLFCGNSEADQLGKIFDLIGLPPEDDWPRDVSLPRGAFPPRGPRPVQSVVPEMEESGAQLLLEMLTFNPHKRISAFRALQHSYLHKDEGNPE
cdk4, sequence (P24385 whole entry partner): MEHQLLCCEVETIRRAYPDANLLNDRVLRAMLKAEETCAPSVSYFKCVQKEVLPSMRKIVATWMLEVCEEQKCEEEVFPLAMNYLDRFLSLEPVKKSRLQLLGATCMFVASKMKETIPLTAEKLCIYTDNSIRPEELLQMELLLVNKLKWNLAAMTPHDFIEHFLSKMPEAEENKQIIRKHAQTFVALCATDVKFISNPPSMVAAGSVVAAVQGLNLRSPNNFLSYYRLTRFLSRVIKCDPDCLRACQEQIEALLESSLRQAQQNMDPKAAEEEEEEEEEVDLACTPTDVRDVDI

Compound | IC50 [1] | IC50 [2] | IC50 ([3]; A2780, 72 h) | IC50 [4] | melting point | IC50 [5] | IC50 [1, 6] | IC50 [2, 7] | IC50 [3, 8] | IC50 [4, 9] | IC50 [5, 10]
Cn1c(=O)nc2n(C3CCCC3)nc(-c3ccc(-c4ccc(OCCN5CCOCC5)cc4)o3)nc-2c1=O [Compound 117] | 286 nM | 49.4 nM | 178 nM | 18.9 nM | 173 °C | 813 nM |  |  |  |  | 
CN1CCN(C(=O)COc2ccc(-c3ccc(-c4nc5c(=O)n(C)c(=O)nc-5n(C5CCCC5)n4)o3)cc2)CC1 [Compound 119] |  |  |  |  | 252 °C |  | 129 nM | 54 nM | 48.1 nM | 17.6 nM | 470 nM
Cn1c(=O)nc2n(C3CCCC3)nc(-c3ccc(-c4ccc(CN5CCN(CCOCCO)CC5)cc4)o3)nc-2c1=O [Compound 121] |  |  |  |  | > 250 °C |  | 161 nM | 57.3 nM | 137 nM | 12 nM | 406 nM
Cn1c(=O)nc2n(C3CCCC3)nc(-c3ccc(-c4ccc(CNCc5cccnc5)cc4)o3)nc-2c1=O [Compound 122] |  |  |  |  | 205 °C |  | 91 nM | 30.9 nM | 70.5 nM | 14 nM | 123 nM
Cn1c(=O)nc2n(C3CCCC3)nc(-c3ccc(-c4ccc(CNC(CO)(CO)CO)cc4)o3)nc-2c1=O [Compound 126] |  |  |  |  | 241 °C |  | 78.3 nM | 80.2 nM | 1110 nM | 93.8 nM | 272 nM
Cn1c(=O)nc2n(C3CCCC3)nc(-c3ccc(-c4ccc(CN5CCCC5)cc4)o3)nc-2c1=O [Compound 131] |  |  |  |  | 218 °C |  | 51.9 nM | 91.4 nM | 61.7 nM | 18.6 nM | 71.8 nM
COC1CCN(Cc2ccc(-c3ccc(-c4nc5c(=O)n(C)c(=O)nc-5n(C5CCCC5)n4)o3)cc2)CC1 [Compound 132] |  |  |  |  | 220 °C |  | 78.5 nM | 47 nM | 87.7 nM | 20.2 nM | 58.3 nM
COCCN1CCN(Cc2ccc(-c3ccc(-c4nc5c(=O)n(C)c(=O)nc-5n(C5CCCC5)n4)o3)cc2)CC1 [Compound 133] |  |  |  |  | 186 °C |  | 112 nM | 61 nM | 119 nM | 11.6 nM | 67.8 nM
Cn1c(=O)nc2n(C3CCCC3)nc(-c3ccc(-c4ccc(CN(CCO)CCO)cc4)o3)nc-2c1=O [Compound 134] |  |  |  |  | 242 °C |  | 111 nM | 59.8 nM | 52.7 nM | 12.9 nM | 39.2 nM
